These results are taken from PubChem BioAssay (NCI).

Where “and” joins values, the source holds several entries; their conditions need not be identical. Equal values may be shown once.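 These data come from cells grown in 96-well plates and exposed to compound for 48 hours at five concentrations. GI50 = concentration required for 50% inhibition of growth. TGI is the concentration that stops growth completely.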

Test systems include ACHN renal; COLO 205 colon; DU-145 prostate; HCT-116 colon; HCT-15 colon; HOP-62 NSCLC; HT29 colon; K-562 leukemia; KM12 colon; MDA-MB-231 breast; OVCAR-5 ovarian; SF-295 CNS; SK-MEL-5 melanoma; SNB-75 CNS.
Common to all, as to assay: NCI tumour cell line growth inhibition, 48 h

On to `C[C@@H]1CC[C@@H]2[C@@H](C1)O[C@@H]([C@@H](C)OCc1ccccc1)SC2(C)C`, for which the TGI is 31.6 µM in the assay with ACHN renal; 32.7 µM with COLO 205 colon; more than 100 µM in the assay on DU-145 prostate; 34.5 µM in the assay on HCT-116 colon; 36.8 µM in the assay with HCT-15 colon; 32.3 µM in the assay with HOP-62 NSCLC. For the same compound, the TGI amounted to 36.7 µM with HT29 colon; 36 µM in the assay with K-562 leukemia; 34.4 µM in the assay on KM12 colon; 38.2 µM in the assay on MDA-MB-231 breast; 32.9 µM in the assay on OVCAR-5 ovarian; 31.2 µM with SF-295 CNS. Moreover, the TGI worked out at 31.3 µM in the assay on SK-MEL-5 melanoma and 34 µM in the assay on SNB-75 CNS.

As to `C#C[C@]1(O)CC[C@H]2[C@@H]3CCc4cc(O)ccc4[C@H]3CC[C@@]21C`, the TGI with ACHN renal was more than 100 µM; in the assay with COLO 205 colon, 92.7 µM; in the assay on HCT-116 colon, more than 100 µM; in the assay on HCT-15 colon it was more than 100 µM; in the assay on HT29 colon, 54.4 µM; in the assay with KM12 colon, more than 100 µM. The TGI was more than 100 µM in the assay with OVCAR-5 ovarian, 74.8 µM with SF-295 CNS, 52.2 µM with SK-MEL-5 melanoma and 42.8 µM in the assay on SNB-75 CNS.

As to `CC(C)CC(N)C(=O)NC(C(=O)NC(CCCNC(=N)N)C(=O)NC(CS)C(=O)NC1CSCC(C(=O)NC(Cc2ccccc2)C(=O)NC(C(=O)NC(CCCNC(=N)N)C(=O)O)C(C)C)NC(=O)C2CCCN2C(=O)C(CCCCN)NC(=O)C2CCCN2C(=O)C2CCCN2C(=O)C(Cc2ccc(O)cc2)NC(=O)C(CO)NC(=O)C(CCCCN)NC(=O)C(C(C)O)NC(=O)C(Cc2c[nH]c3ccccc23)NC1=O)C(C)C` (centres undefined), the TGI in the assay on ACHN renal, in the assay on COLO 205 colon, in the assay on DU-145 prostate, with HCT-116 colon, in the assay with HCT-15 colon and in the assay on HOP-62 NSCLC was more than 25 µM throughout. In addition, the TGI in the assay on HT29 colon, in the assay with K-562 leukemia, with KM12 colon, in the assay on MDA-MB-231 breast, with OVCAR-5 ovarian and in the assay on SF-295 CNS was more than 25 µM in each case. In the assay with SK-MEL-5 melanoma, this compound came in with a TGI of more than 25 µM.

Consider `CC(Oc1ccc(Cl)cc1Cl)C(=O)NN1C(=O)CC(=O)N(c2ccccc2)C1=S` (centres undefined), for which the TGI with ACHN renal, in the assay with COLO 205 colon, with DU-145 prostate, in the assay with HCT-116 colon, in the assay with HCT-15 colon and in the assay with HOP-62 NSCLC was more than 100 µM throughout. Further, the TGI in the assay on HT29 colon, in the assay with K-562 leukemia, in the assay on KM12 colon, with MDA-MB-231 breast, in the assay on OVCAR-5 ovarian and with SF-295 CNS was more than 100 µM each time. The TGI with SK-MEL-5 melanoma and in the assay on SNB-75 CNS was more than 100 µM each time.

Consider `COc1ccc(CCn2cncn2)cc1`, for which the TGI in the assay on ACHN renal, with COLO 205 colon, in the assay on HCT-116 colon, with HCT-15 colon, with HOP-62 NSCLC and with HT29 colon was more than 100 µM each time. Also, the TGI in the assay with K-562 leukemia, with KM12 colon, with OVCAR-5 ovarian, with SF-295 CNS, in the assay with SK-MEL-5 melanoma and in the assay on SNB-75 CNS was more than 100 µM in each case.

Consider `COc1ccccc1-c1c(C#N)c(N)[nH]c(=S)c1C#N`, for which the TGI in the assay with ACHN renal, in the assay on COLO 205 colon, in the assay on DU-145 prostate, with HCT-116 colon, with HCT-15 colon and in the assay on HOP-62 NSCLC was more than 100 µM each time. In addition, the TGI in the assay with HT29 colon, with K-562 leukemia, in the assay with KM12 colon, in the assay on MDA-MB-231 breast, with OVCAR-5 ovarian and in the assay with SF-295 CNS was more than 100 µM in each case. In addition, the TGI in the assay on SK-MEL-5 melanoma is more than 100 µM.

As to `COC(=O)/C=C\C(C#N)(C#N)N=Cc1ccc(OC)cc1`, the TGI was 8.64 µM with ACHN renal; 3.47 µM in the assay on COLO 205 colon; 17 µM with DU-145 prostate; 3.77 µM with HCT-116 colon; 13.2 µM in the assay with HCT-15 colon; 33.9 µM with HOP-62 NSCLC. Further, the TGI is 22.2 µM in the assay with HT29 colon; more than 58.6 µM with K-562 leukemia; 32.6 µM in the assay with KM12 colon; 37.7 µM in the assay with MDA-MB-231 breast; 40.7 µM in the assay on OVCAR-5 ovarian; 53 µM in the assay with SF-295 CNS. Besides, the TGI in the assay on SK-MEL-5 melanoma amounted to 32.6 µM; with SNB-75 CNS, 34.2 µM.

In the case of `COc1ccc2nc3cc(Cl)ccc3c(NCCCN3CCN(CCCNc4ccc5nnn6c7ccccc7c(=O)c4c56)CC3)c2c1`, the TGI in the assay on COLO 205 colon was more than 25 µM; in the assay on DU-145 prostate it was more than 25 µM; in the assay with HCT-116 colon, more than 20.2 µM; in the assay with HCT-15 colon, more than 25 µM; in the assay with HOP-62 NSCLC, more than 25 µM; in the assay with HT29 colon it was more than 25 µM. For the same compound, the TGI in the assay on K-562 leukemia was more than 25 µM; in the assay on KM12 colon it was more than 25 µM; with MDA-MB-231 breast, more than 18.2 µM; with OVCAR-5 ovarian, more than 25 µM; in the assay with SF-295 CNS it was more than 25 µM; in the assay on SK-MEL-5 melanoma, more than 25 µM. This compound also displayed a TGI in the assay with SNB-75 CNS of more than 25 µM.

For `O=c1c2cc(O)ccc2n2nnc3ccc(NCCNCCO)c1c32`, the GI50 in the assay on ACHN renal is 7.68 µM and 3.58 µM; with HOP-62 NSCLC, 10.1 µM and 3.25 µM; in the assay with K-562 leukemia, 6.58 µM and 2.59 µM; with OVCAR-5 ovarian, 22.5 µM and 9.69 µM; with SK-MEL-5 melanoma, 12.9 µM and 2.39 µM; with SNB-75 CNS, 2.68 µM and 5.5 µM. Besides, the TGI in the assay with ACHN renal was > 64.8 µM and 22.1 µM; in the assay with COLO 205 colon it was 50.9 µM and 21.7 µM; in the assay with HCT-116 colon, > 100 µM and 28.6 µM; with HCT-15 colon, more than 100 µM; in the assay with HOP-62 NSCLC, 43.4 µM and 18 µM; with HT29 colon, > 66.3 µM and 29.1 µM. Besides, the TGI was > 62.8 µM and 14.7 µM in the assay with K-562 leukemia; > 85.3 µM and 25.2 µM with KM12 colon; > 100 µM and 34 µM with OVCAR-5 ovarian; > 45.5 µM and 35.2 µM with SF-295 CNS; 28.9 µM and 11.7 µM with SK-MEL-5 melanoma; 17 µM and 18.3 µM in the assay on SNB-75 CNS.

For `C/C(C=O)=C/[C@@]1(C)O[C@@H](C)[C@@](C)(O)[C@@H]1O`, the TGI is 44.4 µM with ACHN renal; more than 100 µM with COLO 205 colon; more than 100 µM with DU-145 prostate; more than 100 µM in the assay on HCT-116 colon; 51.5 µM with HCT-15 colon; more than 100 µM in the assay on HOP-62 NSCLC. Further, the TGI in the assay with HT29 colon, with K-562 leukemia, with KM12 colon, in the assay with MDA-MB-231 breast, in the assay on OVCAR-5 ovarian and with SF-295 CNS was more than 100 µM in each case. In addition, in the assay on SK-MEL-5 melanoma, the TGI is more than 100 µM.
